# Literature values as cited in US9707278B2, “Methods of modulating immune responses by modifying Akt3 bioactivity” (Augusta University Research Institute, Inc., priority 2014, dated 2017).
# What was measured:
# [1] = human, in vivo
# [2] = patients with advanced solid tumors
# [3] = system: 250 other protein kinases
# [4] = patients with advanced solid tumors; remark: listed apart in the source
# [5] = molecular target: p70S6K (Homo sapiens, UniProt P23443)
# [6] = molecular target: PKA (Homo sapiens, UniProt P17612)
# Sequence of p70S6K (P23443 whole entry): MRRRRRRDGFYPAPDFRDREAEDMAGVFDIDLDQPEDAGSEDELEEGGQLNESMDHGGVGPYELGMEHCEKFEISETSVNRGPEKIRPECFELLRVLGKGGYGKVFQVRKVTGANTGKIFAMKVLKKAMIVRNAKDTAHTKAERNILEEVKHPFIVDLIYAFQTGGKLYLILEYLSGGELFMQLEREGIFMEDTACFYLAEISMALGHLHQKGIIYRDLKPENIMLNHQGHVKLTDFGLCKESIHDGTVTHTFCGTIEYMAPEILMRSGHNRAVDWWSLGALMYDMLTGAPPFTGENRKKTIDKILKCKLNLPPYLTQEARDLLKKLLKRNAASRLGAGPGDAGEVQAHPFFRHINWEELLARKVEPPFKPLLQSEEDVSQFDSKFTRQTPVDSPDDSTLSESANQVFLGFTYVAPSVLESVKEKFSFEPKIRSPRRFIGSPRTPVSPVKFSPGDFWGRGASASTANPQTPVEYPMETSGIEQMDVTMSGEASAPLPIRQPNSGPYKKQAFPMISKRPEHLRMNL
structure (smiles),measurement,setting,value
NC1(C(=O)N[C@@H](CCO)c2ccc(Cl)cc2)CCN(c2ncnc3[nH]ccc23)CC1 [AZD5363],tolerability,[1],generally well tolerated
CC(C)NC[C@@H](C(=O)N1CCN(c2ncnc3c2[C@H](C)C[C@H]3O)CC1)c1ccc(Cl)cc1 [GDC-0068],single agent maximum tolerated dose,[2],600 mg
NC1(c2ccc(-c3nc4ccn5c(=O)[nH]nc5c4cc3-c3ccccc3)cc2)CCC1 [MK-2206 2HCl],inhibitory activities against 250 other protein kinases,[3],no inhibitory activities
NC1(c2ccc(-c3nc4ccn5c(=O)[nH]nc5c4cc3-c3ccccc3)cc2)CCC1 [MK-2206],dose-limiting toxicities,"[4]; 30, 60, 75, or 90 mg on alternate days",skin rash and stomatitis
same,MTD,"[4]; oral, alternate days",60 mg
Clc1ccc(C2(c3ccc(-c4cn[nH]c4)cc3)CCNCC2)cc1 [AT7867],IC50,[5],85 nM
same,IC50,[6],20 nM
